Experimental data: ChEMBL document CHEMBL4393691, “Design, synthesis and antitumor evaluation of novel celastrol derivatives” (Eur J Med Chem, 2019)
Activity calls are given as the source filed them. No cut-off for these calls is given here.

Key:
MCF7 [1] = test: Antiproliferative activity against human MCF7 cells assessed as reduction in cell viability at 1 uM incubated for 48 hrs by MTT assay relative to control; format: functional; conditions: MCF7, 48 h
MCF7 [2] = test: cells; conditions: Homo sapiens, MCF7, 48 h
A549 [3] = test: cells; conditions: Homo sapiens, A549, 48 h
HepG2 = test: Cytotoxicity against human HepG2 cells assessed as reduction in cell viability incubated for 48 hrs by MTT assay; format: functional, cell-based; conditions: HepG2, 48 h
A549 [4] = test: Induction of apoptosis in human A549 cells assessed as late apoptotic cells at 2 uM incubated for 24 hrs by AnnexinV-FITC/propidium iodide staining-based flow cytometric analysis (reference value: 4.2%); format: functional
A549 [5] = test: Induction of apoptosis in human A549 cells assessed as necrotic cells at 2 uM incubated for 24 hrs by AnnexinV-FITC/propidium iodide staining-based flow cytometric analysis (reference value: 3.6%); format: functional
A549 [6] = test: Induction of apoptosis in human A549 cells assessed as viable cells at 2 uM incubated for 24 hrs by AnnexinV-FITC/propidium iodide staining-based flow cytometric analysis (reference value: 88.1%); format: functional; conditions: A549, 24 h, read-out: Activity
A549 [7] = test: Induction of apoptosis in human A549 cells assessed as early apoptotic cells at 2 uM incubated for 24 hrs by AnnexinV-FITC/propidium iodide staining-based flow cytometric analysis (reference value: 4.1%); format: functional
A549 [8] = test: Inhibition of Hsp90-Cdc37 interaction in human A549 cells assessed as decrease in Cdc37 protein level at 5 uM incubated for 6 hrs by immunoprecipitation assay; format: cell-based

| Structure (SMILES) | inhibition at 1 µM (MCF7 [1]) | also measured |
| --- | --- | --- |
| COC(=O)/C(C#N)=C\c1ccc(OC)c(OCCCCOC(=O)[C@]2(C)CC[C@]3(C)CC[C@]4(C)C5=CC=C6C(=CC(=O)C(O)=C6C)[C@]5(C)CC[C@@]4(C)[C@@H]3C2)c1 | 27.4% | – |
| COC(=O)/C=C/c1ccc(OCCOC(=O)[C@]2(C)CC[C@]3(C)CC[C@]4(C)C5=CC=C6C(=CC(=O)C(O)=C6C)[C@]5(C)CC[C@@]4(C)[C@@H]3C2)cc1 | 63.9% | IC50 (MCF7 [2]): 670 nM; IC50 (A549 [3]): 600 nM; IC50 (HepG2): 600 nM |
| COC(=O)/C=C/c1ccc(OCCOC(=O)[C@]2(C)CC[C@]3(C)CC[C@]4(C)C5=CC=C6C(=CC(=O)C(O)=C6C)[C@]5(C)CC[C@@]4(C)[C@@H]3C2)c(OC)c1 | 27.7% | – |
| COC(=O)/C(C#N)=C/c1ccc(OCCCOC(=O)[C@]2(C)CC[C@]3(C)CC[C@]4(C)C5=CC=C6C(=CC(=O)C(O)=C6C)[C@]5(C)CC[C@@]4(C)[C@@H]3C2)cc1OC | 11% | – |
| COC(=O)/C=C/c1ccc(OCCCCOC(=O)[C@]2(C)CC[C@]3(C)CC[C@]4(C)C5=CC=C6C(=CC(=O)C(O)=C6C)[C@]5(C)CC[C@@]4(C)[C@@H]3C2)c(OC)c1 | 15.9% | – |
| COC(=O)/C(C#N)=C/c1ccc(OCCCOC(=O)[C@]2(C)CC[C@]3(C)CC[C@]4(C)C5=CC=C6C(=CC(=O)C(O)=C6C)[C@]5(C)CC[C@@]4(C)[C@@H]3C2)cc1F | 8.36% | – |
| COC(=O)/C=C/c1cc(OC)c(OCCCCOC(=O)[C@]2(C)CC[C@]3(C)CC[C@]4(C)C5=CC=C6C(=CC(=O)C(O)=C6C)[C@]5(C)CC[C@@]4(C)[C@@H]3C2)c(OC)c1 | 7.52% | – |
| COC(=O)/C(C#N)=C\c1cccc(OCCCOC(=O)[C@]2(C)CC[C@]3(C)CC[C@]4(C)C5=CC=C6C(=CC(=O)C(O)=C6C)[C@]5(C)CC[C@@]4(C)[C@@H]3C2)c1 | 47% | – |
| COC(=O)/C=C\c1ccc(OC)c(OC/C=C/COC(=O)[C@]2(C)CC[C@]3(C)CC[C@]4(C)C5=CC=C6C(=CC(=O)C(O)=C6C)[C@]5(C)CC[C@@]4(C)[C@@H]3C2)c1 | 49.2% | – |
| COC(=O)/C=C/c1cc(OC)c(OC/C=C/COC(=O)[C@]2(C)CC[C@]3(C)CC[C@]4(C)C5=CC=C6C(=CC(=O)C(O)=C6C)[C@]5(C)CC[C@@]4(C)[C@@H]3C2)c(OC)c1 | 18% | – |
| COC(=O)/C=C\c1ccc(OC)c(OCCCOC(=O)[C@]2(C)CC[C@]3(C)CC[C@]4(C)C5=CC=C6C(=CC(=O)C(O)=C6C)[C@]5(C)CC[C@@]4(C)[C@@H]3C2)c1 | 67.4% | IC50 (MCF7 [2]): 670 nM; IC50 (A549 [3]): 700 nM; IC50 (HepG2): 650 nM |
| COC(=O)/C(C#N)=C/c1ccc(OCCOC(=O)[C@]2(C)CC[C@]3(C)CC[C@]4(C)C5=CC=C6C(=CC(=O)C(O)=C6C)[C@]5(C)CC[C@@]4(C)[C@@H]3C2)c(OC)c1 | 59.9% | – |
| COC(=O)/C=C/c1ccc(OCCCOC(=O)[C@]2(C)CC[C@]3(C)CC[C@]4(C)C5=CC=C6C(=CC(=O)C(O)=C6C)[C@]5(C)CC[C@@]4(C)[C@@H]3C2)cc1 | 50.5% | – |
| COC(=O)/C(C#N)=C/c1ccc(OCCCCOC(=O)[C@]2(C)CC[C@]3(C)CC[C@]4(C)C5=CC=C6C(=CC(=O)C(O)=C6C)[C@]5(C)CC[C@@]4(C)[C@@H]3C2)c(OC)c1 | 13.8% | – |
| COC(=O)/C(C#N)=C/c1ccc(OCCCOC(=O)[C@]2(C)CC[C@]3(C)CC[C@]4(C)C5=CC=C6C(=CC(=O)C(O)=C6C)[C@]5(C)CC[C@@]4(C)[C@@H]3C2)cc1 | 22.1% | – |
| CC1=C(O)C(=O)C=C2C1=CC=C1[C@@]2(C)CC[C@@]2(C)[C@@H]3C[C@](C)(C(=O)O)CC[C@]3(C)CC[C@]12C [CELASTROL] | 60.2% | Activity (A549 [4]): 16.1%; Activity (A549 [5]): 4.8%; IC50 (MCF7 [2]): 1060 nM; IC50 (A549 [3]): 1280 nM; viability at 2 µM (A549 [6]): 64.1%; Activity (A549 [7]): 14.9%; inhibition (A549 [8]): Active; IC50 (HepG2): 1330 nM |
| COC(=O)/C=C/c1ccc(OCCCOC(=O)[C@]2(C)CC[C@]3(C)CC[C@]4(C)C5=CC=C6C(=CC(=O)C(O)=C6C)[C@]5(C)CC[C@@]4(C)[C@@H]3C2)c(OC)c1 | 78.5% | IC50 (MCF7 [2]): 450 nM; IC50 (A549 [3]): 560 nM; IC50 (HepG2): 530 nM |

| Structure (SMILES) | inhibition at 1 µM (MCF7 [1]) | also measured |
| --- | --- | --- |
| COC(=O)/C(C#N)=C/c1ccc(OC/C=C/COC(=O)[C@]2(C)CC[C@]3(C)CC[C@]4(C)C5=CC=C6C(=CC(=O)C(O)=C6C)[C@]5(C)CC[C@@]4(C)[C@@H]3C2)c(OC)c1 | 25.7% | – |
| COC(=O)/C=C/c1ccc(OCCCCOC(=O)[C@]2(C)CC[C@]3(C)CC[C@]4(C)C5=CC=C6C(=CC(=O)C(O)=C6C)[C@]5(C)CC[C@@]4(C)[C@@H]3C2)cc1 | 0.94% | – |
| COC(=O)/C=C/c1ccc(OC/C=C/COC(=O)[C@]2(C)CC[C@]3(C)CC[C@]4(C)C5=CC=C6C(=CC(=O)C(O)=C6C)[C@]5(C)CC[C@@]4(C)[C@@H]3C2)cc1 | 5.29% | – |
| COC(=O)/C(C#N)=C/c1ccc(OCCCOC(=O)[C@]2(C)CC[C@]3(C)CC[C@]4(C)C5=CC=C6C(=CC(=O)C(O)=C6C)[C@]5(C)CC[C@@]4(C)[C@@H]3C2)c(OC)c1 | 66.5% | IC50 (MCF7 [2]): 650 nM; IC50 (A549 [3]): 660 nM; IC50 (HepG2): 750 nM |
| COC(=O)/C(C#N)=C/c1ccc(OCCCOC(=O)[C@]2(C)CC[C@]3(C)CC[C@]4(C)C5=CC=C6C(=CC(=O)C(O)=C6C)[C@]5(C)CC[C@@]4(C)[C@@H]3C2)c(F)c1 | 18.8% | – |
| COC(=O)/C=C\c1cccc(OCCCOC(=O)[C@]2(C)CC[C@]3(C)CC[C@]4(C)C5=CC=C6C(=CC(=O)C(O)=C6C)[C@]5(C)CC[C@@]4(C)[C@@H]3C2)c1 | 33% | – |
| COC(=O)/C(C#N)=C\c1ccc(OC)c(OCCOC(=O)[C@]2(C)CC[C@]3(C)CC[C@]4(C)C5=CC=C6C(=CC(=O)C(O)=C6C)[C@]5(C)CC[C@@]4(C)[C@@H]3C2)c1 | 79.7% | IC50 (MCF7 [2]): 300 nM; IC50 (A549 [3]): 460 nM; IC50 (HepG2): 370 nM |
| COC(=O)/C(C#N)=C/c1ccc(OCCCOC(=O)[C@]2(C)CC[C@]3(C)CC[C@]4(C)C5=CC=C6C(=CC(=O)C(O)=C6C)[C@]5(C)CC[C@@]4(C)[C@@H]3C2)c(C)c1 | 21.9% | – |
| COC(=O)[C@]12CCC(C)(C)C[C@H]1[C@H]1C(=O)C=C3[C@@]4(C)C=C(C#N)C(=O)C(C)(C)[C@@H]4CC[C@@]3(C)[C@]1(C)CC2 [BARDOXOLONE METHYL] | – | IC50 (MCF7 [2]): 350 nM; IC50 (A549 [3]): 360 nM; IC50 (HepG2): 260 nM |
| COC(=O)/C(C#N)=C\c1ccc(OC)c(OCCCOC(=O)[C@]2(C)CC[C@]3(C)CC[C@]4(C)C5=CC=C6C(=CC(=O)C(O)=C6C)[C@]5(C)CC[C@@]4(C)[C@@H]3C2)c1 | 65.9% | IC50 (MCF7 [2]): 640 nM; IC50 (A549 [3]): 780 nM; IC50 (HepG2): 710 nM |
| COC(=O)/C(C#N)=C\c1ccc(OC)c(OC/C=C/COC(=O)[C@]2(C)CC[C@]3(C)CC[C@]4(C)C5=CC=C6C(=CC(=O)C(O)=C6C)[C@]5(C)CC[C@@]4(C)[C@@H]3C2)c1 | 45.6% | – |
| COC(=O)/C=C\c1ccc(OC)c(OCCCCOC(=O)[C@]2(C)CC[C@]3(C)CC[C@]4(C)C5=CC=C6C(=CC(=O)C(O)=C6C)[C@]5(C)CC[C@@]4(C)[C@@H]3C2)c1 | 40.1% | – |
| COC(=O)/C=C/c1cc(OC)c(OCCCOC(=O)[C@]2(C)CC[C@]3(C)CC[C@]4(C)C5=CC=C6C(=CC(=O)C(O)=C6C)[C@]5(C)CC[C@@]4(C)[C@@H]3C2)c(OC)c1 | 8.61% | – |
| COC(=O)/C(C#N)=C/c1ccc(OCCCOC(=O)[C@]2(C)CC[C@]3(C)CC[C@]4(C)C5=CC=C6C(=CC(=O)C(O)=C6C)[C@]5(C)CC[C@@]4(C)[C@@H]3C2)cc1C | 19.8% | – |
| COC(=O)/C=C/c1cc(OC)c(OCCOC(=O)[C@]2(C)CC[C@]3(C)CC[C@]4(C)C5=CC=C6C(=CC(=O)C(O)=C6C)[C@]5(C)CC[C@@]4(C)[C@@H]3C2)c(OC)c1 | 60.3% | IC50 (MCF7 [2]): 880 nM; IC50 (A549 [3]): 1070 nM; IC50 (HepG2): 890 nM |
| COC(=O)/C=C/c1ccc(OC/C=C/COC(=O)[C@]2(C)CC[C@]3(C)CC[C@]4(C)C5=CC=C6C(=CC(=O)C(O)=C6C)[C@]5(C)CC[C@@]4(C)[C@@H]3C2)c(OC)c1 | 32.5% | – |
